Measured values reported in US12590094B2, “Compounds for the treatment of neurodegenerative and metabolic disorders” (UNIVERSITY OF FLORIDA RESEARCH FOUNDATION, INCORPORATED, priority 2019, dated 2026).
Values joined by “and” are separate entries in the source; they are usually repeats but may differ in a detail not shown here. Equal values may be shown once. Read-outs that look alike come from different tables or passages of the source.

Tests used:
Cells exposed to TPrP [1] = conditions: for EC50: read-out: Viability EC50
Cells exposed to TPrP [2] = test: cells; conditions: read-out: Viability EC50
[3] = system: PK1 neuroblastoma cells treated with TPrP; test: cells; assay type: cell-based; conditions: Neuroblastoma cell, read-out: NAD EC50
[4] = system: Murine stem-cell derived neurons; test: Cellular PD/synucleinopathy model, PFFs-seeded murine neurons, neurite length; assay type: cell-based; conditions: FIG. 14
Description: Murine stem-cell derived neurons (8 days post-differentiation) were seeded with PFFs (A, B: 4 μg/ml; C, D: 3 μg/ml) and treated with the test compounds at the dose indicated, or with the vehicle DMSO, during the last 2 days of differentiation. Control cells were not PFFs-seeded. Cells were photographed by phase contrast microscopy. Neurite length was quantified using the NeuronJ plugin of ImageJ (NIH), statistical analysis was done in pairs by comparing compound-treated cells with the DMSO control (student's t-test, Prism8). Mean values and SEMs of 4 fields per each condition are shown. Each field contained approximately 50 to 100 neurons. Images shown correspond to a representative area of one field. ****P<0.0001; ***P<0.001; **P<0.01; *P<0.05; ns=not significant.

[5] = system: PK1 neuroblastoma cells treated with TPrP; test: cells; assay type: cell-based; conditions: Neuroblastoma cell, read-out: Viability EC50
NAMPT = molecular target: T1, NAMPT (Homo sapiens, UniProt P43490); test: Colorimetric NAMPT activity assay (Abcam, ab221819); assay type: biochemical; conditions: tested at 5 μM or 20 μM
T1 construct: purchased Abcam ab221819
Description: Compounds were tested in a colorimetric NAMPT activity assay (Abcam, ab221819). Each data point represents a duplicate sample. […] Compounds were tested at 5 μM (A) or 20 μM (B).

PARP-1 = PARP-1 (Homo sapiens, UniProt P09874); test: PARP1 chemiluminescent assay kit (BPS Bioscience); assay type: biochemical; conditions: FIG. 15
Description: ABT-888 is a known PARP1 inhibitor serving as pharmacological control for the assay. […] The assay was performed using the BPS Bioscience PARP1 chemiluminescent assay kit according to the manufacturer's instructions.

T1 sequence (P43490 whole entry): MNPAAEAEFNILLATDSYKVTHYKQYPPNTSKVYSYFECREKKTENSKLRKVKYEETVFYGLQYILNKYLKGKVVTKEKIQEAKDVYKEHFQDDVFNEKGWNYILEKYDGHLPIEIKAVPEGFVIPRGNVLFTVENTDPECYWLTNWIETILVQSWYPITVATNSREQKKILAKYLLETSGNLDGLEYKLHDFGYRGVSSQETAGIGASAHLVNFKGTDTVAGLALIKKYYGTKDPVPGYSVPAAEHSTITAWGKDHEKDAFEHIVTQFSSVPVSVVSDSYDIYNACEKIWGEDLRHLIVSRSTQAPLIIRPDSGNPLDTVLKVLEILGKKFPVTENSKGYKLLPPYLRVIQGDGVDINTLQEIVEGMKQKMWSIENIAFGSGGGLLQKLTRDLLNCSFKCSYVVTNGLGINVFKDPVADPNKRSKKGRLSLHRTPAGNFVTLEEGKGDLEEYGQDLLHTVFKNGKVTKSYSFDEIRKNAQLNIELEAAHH
Chain of PARP-1 (P09874 whole entry): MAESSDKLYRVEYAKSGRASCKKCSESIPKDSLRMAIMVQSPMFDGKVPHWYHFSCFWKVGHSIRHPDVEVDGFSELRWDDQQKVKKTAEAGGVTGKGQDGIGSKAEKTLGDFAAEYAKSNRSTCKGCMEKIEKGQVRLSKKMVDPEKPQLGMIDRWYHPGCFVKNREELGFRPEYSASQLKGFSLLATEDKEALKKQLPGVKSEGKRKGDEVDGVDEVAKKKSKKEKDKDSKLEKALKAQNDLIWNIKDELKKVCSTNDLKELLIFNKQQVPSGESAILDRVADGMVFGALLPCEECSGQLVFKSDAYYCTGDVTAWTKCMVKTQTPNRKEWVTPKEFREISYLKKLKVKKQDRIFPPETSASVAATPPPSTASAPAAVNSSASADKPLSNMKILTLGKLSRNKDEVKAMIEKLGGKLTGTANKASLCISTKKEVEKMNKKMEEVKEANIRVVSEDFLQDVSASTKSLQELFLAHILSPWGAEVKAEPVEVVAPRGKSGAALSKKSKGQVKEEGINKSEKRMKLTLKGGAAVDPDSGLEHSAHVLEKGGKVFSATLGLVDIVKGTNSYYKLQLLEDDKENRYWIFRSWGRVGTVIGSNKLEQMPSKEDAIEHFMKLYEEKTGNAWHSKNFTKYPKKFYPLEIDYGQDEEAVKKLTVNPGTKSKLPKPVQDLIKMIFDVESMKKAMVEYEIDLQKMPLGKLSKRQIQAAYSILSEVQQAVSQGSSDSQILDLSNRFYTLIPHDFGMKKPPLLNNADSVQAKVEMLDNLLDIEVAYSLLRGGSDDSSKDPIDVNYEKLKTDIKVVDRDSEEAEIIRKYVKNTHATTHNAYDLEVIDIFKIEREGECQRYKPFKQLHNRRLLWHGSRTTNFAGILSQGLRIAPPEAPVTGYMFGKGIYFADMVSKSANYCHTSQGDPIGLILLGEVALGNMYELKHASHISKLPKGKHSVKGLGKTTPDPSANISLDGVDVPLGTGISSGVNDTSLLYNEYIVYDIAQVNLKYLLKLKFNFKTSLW

CCc1c(C(=O)NCCN)ncc2[nH]c3cc(OC)c(OC)cc3c12 [DMCM-8124]
EC50 (Cells exposed to TPrP [1]): ~1.8 µM

CCc1c(C(=O)NCCN)ncc2[nH]c3cc(OC)c(OC)cc3c12 [DMCM-8130]
EC50 (Cells exposed to TPrP [1]): ~0.6 µM

CCc1c(C(=O)N[C@H]2CC[C@@H](N)CC2)ncc2[nH]c3cc(OC)c(OC)cc3c12 [DMCM-8137]
neuroprotection in the TPrP neuroprotection assay (Cells exposed to TPrP [1]): neuroprotective | EC50 (Cells exposed to TPrP [2]): ~0.5 µM

COc1ccc(-c2cc(C(F)(F)F)n3ncc(C(=O)NCCCn4ccnc4)c3n2)cc1 [SR0-24081]
EC50 (Cells exposed to TPrP [1]): 0.0005 µM

O=C(NCCCn1ccnc1)c1cnn2c(C(F)(F)F)cc(-c3ccc(Br)cc3)nc12 [SR0-24082]
Viability EC50: % effective (Cells exposed to TPrP [1]): ~40% effective at nM, fully effective at 10 nM

O=C(NCCCn1ccnc1)c1cnn2c(C(F)(F)F)cc(-c3ccc(F)cc3)nc12 [SR0-24083]
Viability EC50: % effective (Cells exposed to TPrP [1]; at 1 nM): ~40% effective at 1 nM, fully effective at 10 nM

O=C(NCCCn1ccnc1)c1cnn2c(C(F)F)cc(-c3ccccc3)nc12 [SR0-24084]
Viability EC50: % effective (Cells exposed to TPrP [1]; at 1 nM): ~40% effective at 1 nM, fully effective at 10 nM

COc1ccc(-c2cc(C(F)(F)F)n3ncc(C(=O)NCCCn4ccnc4)c3n2)cc1 [SR0-28468]
EC50 (Cells exposed to TPrP [1]): > 0.05 µM

COc1ccc(-c2cc(C(F)(F)F)n3ncc(C(=O)NCCCn4ccnc4C)c3n2)cc1 [SR0-31107]
EC50 (Cells exposed to TPrP [1]): 0.002 µM

COc1ccc(-c2cc(C(F)(F)F)n3ncc(C(=O)NCCCn4ccnc4C)c3n2)cc1 [SR0-31108]
EC50 (Cells exposed to TPrP [1]): > 0.05 µM

O=c1cc(-c2ccc(O)cc2)oc2cc(O)cc(O)c12 [SR1-75663, 5,7-dihydroxy-2-(4-hydroxyphenyl)-4H-chromen-4-one]
EC50 [3]: > 10 µM | loss of neurites induced by PFFs exposure [4]: prevent loss of neurites | EC50 [5]: 1.7 µM

Cc1ccc(-c2nnc3c4ccccc4c(C)nn23)cc1S(=O)(=O)NC(C)(C)CO [SR1-115259]
Activation of NAMPT (NAMPT): not | EC50 [3]: 0.167 µM | loss of neurites induced by PFFs exposure [4]: prevent loss of neurites | EC50 [5]: 0.0051 µM

NS(=O)(=O)c1ccc(Nc2nc(-c3ccccn3)cs2)cc1 [SR1-477176]
EC50 [3]: 0.891 µM | EC50 [5]: 0.227 µM

NS(=O)(=O)c1ccc(Nc2nc(-c3ccncc3)cs2)cc1 [SR1-477186]
Activation of NAMPT (NAMPT): not | EC50 [3]: 0.365 µM | loss of neurites induced by PFFs exposure [4]: prevent loss of neurites | EC50 [5]: 0.026 µM

Cc1nc2sccn2c1-c1csc(Nc2ccc(S(N)(=O)=O)cc2)n1 [SR1-477230]
EC50 [3]: 0.204 µM | EC50 [5]: 0.047 µM

Cc1nc2ncccn2c1-c1csc(Nc2ccc(S(N)(=O)=O)cc2)n1 [SR1-477264]
EC50 [3]: 0.597 µM | EC50 [5]: 0.155 µM

Cc1nc(C)c(-c2csc(Nc3ccc(S(N)(=O)=O)cc3)n2)s1 [SR1-477302]
EC50 [3]: 0.103 µM | EC50 [5]: 0.014 µM | EC50 (Cells exposed to TPrP [1]): 0.018 µM and 0.03 µM

NS(=O)(=O)c1ccc(Nc2nc(-c3ccccc3)cs2)cc1 [SR1-492469]
EC50 [3]: 0.859 µM | EC50 [5]: 0.311 µM

Cc1ccc(-c2cc(C(F)(F)F)n3ncc(C(=O)NCCCn4ccnc4)c3n2)cc1 [SR1-527764]
EC50 [3]: 0.0071 µM | EC50 [5]: 0.0019 µM

O=C(NCCCn1ccnc1)c1cnn2c(C(F)(F)F)cc(-c3ccc(-c4ccco4)cc3)nc12 [SR1-550907]
EC50 [3]: 0.0097 µM | EC50 [5]: 0.0029 µM

Cc1ccc(-c2nnc3c4ccccc4c(C)nn23)cc1S(=O)(=O)N1CCN(CCO)CC1 [SR1-626887]
EC50 [3]: 0.0091 µM | EC50 [5]: < 0.003 µM

COc1ccc2cc3[n+](cc2c1OC)CCc1cc2c(cc1-3)OCO2 [SR1-711827, berberine chloride]
EC50 [3]: 13.2 µM | EC50 [5]: 3.1 µM

O=c1cc(-c2ccc(O)cc2)oc2cc(O[C@@H]3O[C@H](CO)[C@@H](O)[C@H](O)[C@H]3OC3OC[C@](O)(CO)[C@H]3O)cc(O)c12 (stereo partly drawn) [SR1-712126]
EC50 [3]: 10.7 µM | EC50 [5]: 4.6 µM

COc1ccc2c3c([nH]c2c1)C(C)=NCC3 [SR1-721899, harmaline]
EC50 [3]: 14 µM | EC50 [5]: 3.8 µM

NS(=O)(=O)c1ccc(Nc2nc(-c3ccc(F)cc3)cs2)cc1 [SR1-742242]
EC50 [3]: 0.946 µM | EC50 [5]: 0.197 µM

CN1C[C@H](CO)C=C2c3cccc4[nH]cc(c34)C[C@H]21 [SR1-758923, lysergol]
EC50 [3]: > 15 µM | EC50 [5]: 1.9 µM

COc1cc2c(cc1O)C[C@H]1c3c(cc(O)c(OC)c3-2)CCN1C [SR1-758928, boldine]
EC50 [3]: 7.6 µM | EC50 [5]: 2 µM

COc1cc(OC)c2c(=O)cc(-c3ccccc3)oc2c1 [SR1-758978, 5,7-dimethoxy-2-phenyl-4H-chromen-4-one]
EC50 [3]: > 10 µM | EC50 [5]: 1.7 µM

NS(=O)(=O)c1ccc(Nc2nc(-c3cccnc3)cs2)cc1 [SR1-809850]
EC50 [3]: 0.337 µM | EC50 [5]: 0.088 µM

COc1cc2c(cc1OC)-c1cc3ccc(OC)c(OC)c3c[n+]1CC2 [SR1-841226, palmatine chloride]
EC50 [3]: 2 µM | EC50 [5]: 1.1 µM

COc1ccc2c(c1O)-c1c(OC)c(O)cc3c1[C@H](C2)N(C)CC3 [SR1-841246, N-Methyl lindcarpine]
EC50 [3]: > 15 µM | EC50 [5]: 4.4 µM

COc1ccc(-c2cc(C(F)(F)F)n3ncc(C(=O)NCCCn4ccnc4C)c3n2)cc1 [SR3-5210]
EC50 (Cells exposed to TPrP [1]): 0.0027 µM

COc1ccc(-c2cc(C(F)(F)F)n3ncc(C(=O)NCCCn4ccnc4)c3n2)cc1 [SR3-5230]
EC50 (Cells exposed to TPrP [1]): > 0.032 µM

COc1ccc(-c2cc(C(F)(F)F)n3ncc(C(=O)NCCCn4ccnc4)c3n2)cc1 [SR3-5315]
EC50 (Cells exposed to TPrP [1]): > 0.016 µM

COc1ccc2c(c1)[nH]c1c(C)nccc12 [SR5-1527, methoxy harman]
EC50 [3]: 14 µM | EC50 [5]: 1.8 µM

O=c1cc(-c2ccc(O)cc2)oc2cc(O[C@@H]3O[C@H](CO)[C@H](O)[C@H](O)[C@H]3O)cc(O)c12 [SR5-2196, apigenin 7-(β-D-galactopyranosyl) ether]
EC50 [3]: > 10 µM | EC50 [5]: 4.6 µM

COc1cc2c(cc1OC)[C@H]1[C@@H](C)c3ccc(OC)c(OC)c3CN1CC2 [SR5-2225, corydaline]
EC50 [3]: 2 µM | EC50 [5]: 1.3 µM

COc1ccc(C2CC(=O)c3cc(OC)ccc3O2)cc1 (stereo not drawn) [SR5-2542, 6-methoxy-2-(4-methoxyphenyl) chroman-4-one]
EC50 [3]: > 10 µM | EC50 [5]: 2.1 µM

COc1ccc(-c2cc(=O)c3c(O)cc(OC)cc3o2)cc1 [SR5-2549, 5-hydroxy-7-methoxy-2-(4-methoxyphenyl)-4H-chromen-4-one]
EC50 [3]: 7.3 µM | EC50 [5]: 2 µM

COc1ccc(-c2cc(=O)c3c(O)cc(OC)c(OC)c3o2)c(OC)c1 [SR5-2616, 2-(2,4-dimethoxyphenyl)-5-hydroxy-7,8-dimethoxy-4H-chromen-4-one]
EC50 [3]: 2.1 µM | EC50 [5]: 1.6 µM

COc1cc2cc3c4cc(OC)c(OC)cc4cc[n+]3c(C)c2cc1OC [SR5-2641, coralyne chloride]
EC50 [3]: 0.671 µM | EC50 [5]: 0.507 µM

COc1ccc(-c2oc3cc(OC)c(OC)c(OC)c3c(=O)c2OC)cc1OC [SR5-2644, 2-(3,4-dimethoxyphenyl)-3,5,6,7-tetramethoxy-4H-chromen-4-one]
EC50 [3]: 1.2 µM | EC50 [5]: 0.62 µM

COc1ccc(-c2cc(=O)c3c(O)c(OC)c(O[C@H]4O[C@H](CO[C@@H]5O[C@@H](C)[C@H](O)[C@@H](O)[C@H]5O)[C@@H](O)[C@H](O)[C@H]4O)cc3o2)cc1 [SR5-2766, pectolinargenin 7-[6-O-(6-deoxy-α-L-mannopyranosyl)-β-D-glucopyranosyl] ether]
EC50 [3]: 4 µM | EC50 [5]: 2.1 µM

COc1ccc(-c2nnc3c4ccccc4c(C)nn23)cc1S(=O)(=O)N1CCOCC1 [SR5-22837]
EC50 [3]: 0.089 µM | EC50 [5]: 0.029 µM

COc1ccc(-c2nnc3c4ccccc4c(C)nn23)cc1S(=O)(=O)NCc1cccnc1 [SR5-22838]
EC50 [3]: 0.38 µM | EC50 [5]: 0.09 µM

Cc1ccc(-c2nnc3c4ccccc4c(C)nn23)cc1S(=O)(=O)NCc1cccnc1 [SR5-22839]
EC50 [3]: 0.092 µM | EC50 [5]: 0.028 µM

COCCNS(=O)(=O)c1cc(-c2nnc3c4ccccc4c(C)nn23)ccc1C [SR5-22841]
EC50 [3]: 0.688 µM | EC50 [5]: 0.13 µM

Cc1ccc(-c2nnc3c4ccccc4c(C)nn23)cc1S(=O)(=O)N1CCOCC1 [SR5-22843]
EC50 [3]: 0.219 µM | EC50 [5]: 0.03 µM | PARP-1 inhibition (PARP-1): absence of PARP-1 inhibition

Cc1ccc(-c2cc(C(F)F)n3ncc(C(=O)NCCCn4ccnc4)c3n2)cc1 [SR-024088]
Viability EC50: % effective (Cells exposed to TPrP [1]; at 1 nM): >80% effective at 1 nM

Cc1nc(C)c(-c2csc(Nc3ccc(S(N)(=O)=O)cc3)n2)s1 [SR-27807]
EC50 (Cells exposed to TPrP [1]): 0.05 µM

COc1ccc(-c2cc(=O)c3c(OC)c(OC)c(OC)cc3o2)cc1OC [SR-05000002257, 2-(3,4-dimethoxyphenyl)-5,6,7-trimethoxy-4H-chromen-4-one]
EC50 [3]: 3.6 µM | EC50 [5]: 0.323 µM

COc1ccc(-c2cc(=O)c3c(OC)c(OC)c(OC)c(OC)c3o2)cc1 [SR-05000002625, 5,6,7,8-tetramethoxy-2-(4-methoxyphenyl)-4H-chromen-4-one]
EC50 [3]: 6 µM | EC50 [5]: 1.9 µM

COc1ccc(-c2cc(=O)c3c(O)c(OC)c(OC)c(OC)c3o2)cc1OC [SR-05000002635, 2-(3,4-dimethoxyphenyl)-5-hydroxy-6,7,8-trimethoxy-4H-chromen-4-one]
EC50 [3]: 0.609 µM | EC50 [5]: 0.081 µM
